From US11279712B2, “Macrocyclic compounds that inhibit MCL-1 protein” (AMGEN INC., priority 2017, dated 2022)
pIC50: −log10 of the molar value. Where two headings read alike, the source gives them in different places.

What was measured:
[1] = test system: OPM-2 human multiple myeloma cell line; assay: Cell Viability Assay (OPM-2 10 FBS); assay type: cell-based; settings: OPM-2 cells, CellTiter-Glo, read-out: OPM-2 10% FBS IC50 IP
Procedure: Cell Viability Assay (OPM-2 10 FBS)
The human multiple myeloma cell line, OPM-2, was cultured in complete growth medium containing RPMI 1640 and 10% fetal bovine serum (FBS). Cells were seeded into 384-well plates at 3000 cells/well density in complete growth medium containing 10% FBS, and incubated for 16 h with serially diluted test compounds in a 37° C. incubator with 5% CO2. Cell viability was tested using CellTiter-Glo® assay (Promega, Madison, Wis.) according to the manufacturer recommendations. Luminescence was determined using an EnVision® Multilabel plate reader 25 min after the addition of detection reagent. IC50 values were then calculated with Xlfit using a logistical 4-parameter fit model in GraphPad Prism (GraphPad Software, San Diego, Calif.) or in Genedata Screener® (Genedata, Basel, Switzerland).

[2] = target: Mcl-1/Bim interaction (recombinant human Mcl-1 residues 171-327) (Homo sapiens (Human), UniProt Q07820); assay: Cell Free Mcl-1:Bim Affinity Assay (Mcl-1 HTRF); assay type: binding; settings: TR-FRET, 0.1 nM Mcl-1(171-327), 0.05 nM biotin-Bim(51-76)
Procedure: Cell Free Mcl-1:Bim Affinity Assay (Mcl-1 HTRF)
The inhibition of the Mcl-1/Bim interaction was measured using a time-resolved fluorescence resonance energy transfer (TR-FRET) assay. The recombinant human Mcl-1 (C-terminally 6×His tagged Mcl-1 containing residues 171-327) was generated at Amgen Inc (Thousand Oaks, Calif.). A biotinylated peptide derived from human Bim (residues 51-76) was purchased from CPC Scientific (San Jose, Calif.). The TR-FRET assay was conducted in a 384-well white OptiPlate™ (PerkinElmer, Waltham, Mass.) in a total volume of 40 μL. The reaction mixture contained 0.1 nM Mcl-1(171-327), 0.05 nM biotin-Bim(51-76), 0.05 nM LANCES Eu-W1024 Anti-6×His (PerkinElmer), 0.072 nM Streptavidin-Xlent (Cisbio, Bedford, Mass.), and serially diluted test compounds in the binding buffer of 20 mM Hepes, pH 7.5, 150 mM NaCl, 0.016 mM Brij®35, and 1 mM dithiothreitol. Test compounds were pre-incubated with Mcl-1(171-327) and biotin-Bim (51-76) for 60 min before addition of the detection mixture (LANCE® Eu-W1024 Anti-6×His and Streptavidin-Xlent). The reaction plates were further incubated overnight and then were read on an Envision® multimode reader (PerkinElmer). Fluorescence signals were measured at 620 nm (40-nm bandwidth) and 665 nm (7.5-nm bandwidth) with a 60 μs delay after excitation at 320 nm (75-nm bandwidth). The signal ratio at 665/620 nm corresponded to the Mcl-1/Bim interaction and was used in all data analyses. The IC50 values of test compounds were determined from duplicate data by analyzing competition curves using a four-parameter sigmoidal model in GraphPad Prism (GraphPad Software, San Diego, Calif.) or in Genedata Screener® (Genedata, Basel, Switzerland).

Mcl-1/Bim interaction (recombinant human Mcl-1 residues 171-327), sequence (Q07820 171-327): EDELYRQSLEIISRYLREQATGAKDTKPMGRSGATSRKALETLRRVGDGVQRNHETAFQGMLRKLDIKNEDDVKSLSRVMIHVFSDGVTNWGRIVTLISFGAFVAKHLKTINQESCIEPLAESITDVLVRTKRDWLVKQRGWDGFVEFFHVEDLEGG

Compound	pIC50 ([1]; 16 h)	pIC50 [2]	pIC50 ([1]; Homo sapiens, OPM-2, 16 h)
C[C@@H]1[C@@H](C)CCC[C@H](CN2CCN3CCOC[C@H]3C2)[C@@H]2CC[C@H]2CN2C[C@@]3(CCCc4cc(Cl)ccc43)COc3ccc(cc32)C(=O)NS1(=O)=O (single isomer, unassigned) [Example 31]	6.42	9.58	–
CC(=O)N1CCN2CCN(C[C@H]3CCC[C@H](C)[C@@H](C)S(=O)(=O)NC(=O)c4ccc5c(c4)N(C[C@@H]4CC[C@@H]34)C[C@@]3(CCCc4cc(Cl)ccc43)CO5)C[C@H]2C1 (single isomer, unassigned) [Example 48]	6.11	9.48	–
C[C@@H]1[C@@H](C)CCC[C@H]([C@H](O)c2ccccc2)[C@@H]2CC[C@H]2CN2C[C@@]3(CCCc4cc(Cl)ccc43)COc3ccc(cc32)C(=O)NS1(=O)=O (single isomer, unassigned) [Example 78]	4.55	8.63	–
C[C@@H]1[C@@H](C)C/C=C/[C@H](CN2CCOCC2)[C@@H]2CC[C@H]2CN2C[C@@]3(CCCc4cc(Cl)ccc43)COc3ccc(cc32)C(=O)NS1(=O)=O (stereo in doubt) [Example 62]	–	9.41	5.84
C[C@H]1CCC[C@H](CO)[C@@H]2CC[C@H]2CN2C[C@@]3(CCCc4cc(Cl)ccc43)COc3ccc(cc32)C(=O)NS(=O)(=O)C1 (single isomer, unassigned) [Example 82]	5.44	9.11	–
C[C@@H]1CS(=O)(=O)NC(=O)c2ccc3c(c2)N(C[C@@H]2CC[C@H]2[C@@H](CO)CC[C@@H]1C)C[C@@]1(CCCc2cc(Cl)ccc21)CO3 (single isomer, unassigned) [Example 43]	6.22	9.57	–
C[C@@H]1[C@@H](C)CCC[C@H](CN2CC(N(C)C)C2)[C@@H]2CC[C@H]2CN2C[C@@]3(CCCc4cc(Cl)ccc43)COc3ccc(cc32)C(=O)NS1(=O)=O (stereo in doubt) [Example 18]	6.54	9.08	–
COCC[C@@H]1[C@@H](C)CCC[C@H](CO)[C@@H]2CC[C@H]2CN2C[C@@]3(CCCc4cc(Cl)ccc43)COc3ccc(cc32)C(=O)NS1(=O)=O (single isomer, unassigned) [Example 59]	5.88	9.04	–
C[C@@H]1[C@@H](C)CCC[C@H](CN2CC3(CCCN3C)C2)[C@@H]2CC[C@H]2CN2C[C@@]3(CCCc4cc(Cl)ccc43)COc3ccc(cc32)C(=O)NS1(=O)=O (single isomer, unassigned) [Example 16]	6.55	9.50	–
C[C@@H]1[C@@H](C)CCC[C@@H]([C@H](O)C(F)(F)F)[C@@H]2CC[C@H]2CN2C[C@@]3(CCCc4cc(Cl)ccc43)COc3ccc(cc32)C(=O)NS1(=O)=O (single isomer, unassigned) [Example 86]	5.03	7.56	–
C[C@@H]1[C@@H](C)C/C=C/[C@H](CO)[C@@H]2CC[C@H]2CN2C[C@@]3(CCCc4cc(Cl)ccc43)COc3ccc(cc32)C(=O)NS1(=O)=O (single isomer, unassigned) [Example 26]	6.47	9.47	–
C[C@@H]1[C@@H](C)CCC[C@@H](CS(C)(=O)=O)[C@@H]2CC[C@H]2CN2C[C@@]3(CCCc4cc(Cl)ccc43)COc3ccc(cc32)C(=O)NS1(=O)=O (single isomer, unassigned) [Example 44]	6.21	9.30	–
C[C@@H]1[C@@H](C)CCC[C@H](CN2CC(C)(N(C)C)C2)[C@@H]2CC[C@H]2CN2C[C@@]3(CCCc4cc(Cl)ccc43)COc3ccc(cc32)C(=O)NS1(=O)=O (stereo in doubt) [Example 27]	6.45	9.08	–
C[C@@H]1[C@@H](C)CCC[C@@H]([C@@H](O)C(F)(F)F)[C@@H]2CC[C@H]2CN2C[C@@]3(CCCc4cc(Cl)ccc43)COc3ccc(cc32)C(=O)NS1(=O)=O (single isomer, unassigned) [Example 47]	6.12	8.79	–
C[C@@H]1[C@@H](C)CCC[C@H]([C@@H](C)O)[C@@H]2CC[C@H]2CN2C[C@@]3(CCCc4cc(Cl)ccc43)COc3ccc(cc32)C(=O)NS1(=O)=O (single isomer, unassigned) [Example 58]	5.91	9.00	–
C[C@@H]1[C@@H](C)CCC[C@H](CN2CCN3CCN(C(=O)OC(C)(C)C)C[C@@H]3C2)[C@@H]2CC[C@H]2CN2C[C@@]3(CCCc4cc(Cl)ccc43)COc3ccc(cc32)C(=O)NS1(=O)=O (stereo in doubt) [Example 64]	–	–	5.82
COCCN1CCN(C[C@H]2CCC[C@H](C)[C@@H](C)S(=O)(=O)NC(=O)c3ccc4c(c3)N(C[C@@H]3CC[C@@H]23)C[C@@]2(CCCc3cc(Cl)ccc32)CO4)CC1 (single isomer, unassigned) [Example 39]	6.27	9.08	–
C[C@@H]1[C@@H](C)CCC[C@@H](CC(=O)N2CCN3CCOC[C@H]3C2)[C@@H]2CC[C@H]2CN2C[C@@]3(CCCc4cc(Cl)ccc43)COc3ccc(cc32)C(=O)NS1(=O)=O [Example 2, (1s,3′r,6′s,7′s,11′s,12′r)-6-chloro-7′-(2-((9ar)-hexahydropyrazino[2,1-c][1,4]oxazin-8(1h)-yl)-2-oxoethyl)-11′,12′-dimethyl-3,4-dihydro-2h,15′h-spiro[naphthalene-1,22′-[20]oxa[13]thia[1,14]diazatetracyclo[14.7.2.0˜3,6˜0.0˜19,24˜]pentacosa[16,18,24]trien]-15′-one 13′,13′-dioxide trifluoroacetic acid]	–	–	6.87

The next lines start with the values.

pIC50 ([1]; 16 h)	pIC50 [2]	pIC50 ([1]; Homo sapiens, OPM-2, 16 h)	Compound
6.76	9.21	–	C[C@@H]1[C@@H](C)CCC[C@H](CN2CCN(C)CC2)[C@@H]2CC[C@H]2CN2C[C@@]3(CCCc4cc(Cl)ccc43)COc3ccc(cc32)C(=O)NS1(=O)=O (single isomer, unassigned) [Example 5]
6.39	9.76	–	CC(=O)N1CCN(C[C@H]2CCC[C@H](C)[C@@H](C)S(=O)(=O)NC(=O)c3ccc4c(c3)N(C[C@@H]3CC[C@@H]23)C[C@@]2(CCCc3cc(Cl)ccc32)CO4)CC1 (stereo in doubt) [Example 33]
–	9.29	6.28	C[C@@H]1[C@@H](C)CCC[C@H](C(=O)N2CC(F)(F)C2)[C@@H]2CC[C@H]2CN2C[C@@]3(CCCc4cc(Cl)ccc43)COc3ccc(cc32)C(=O)NS1(=O)=O (single isomer, unassigned) [Example 38]
–	9.61	6.65	C[C@@H]1[C@@H](C)CCC[C@H](C(=O)N2CCC2)[C@@H]2CC[C@H]2CN2C[C@@]3(CCCc4cc(Cl)ccc43)COc3ccc(cc32)C(=O)NS1(=O)=O (single isomer, unassigned) [Example 9]
6.17	9.47	–	CC(=O)[C@@H]1CCC[C@H](C)[C@@H](C)S(=O)(=O)NC(=O)c2ccc3c(c2)N(C[C@@H]2CC[C@H]21)C[C@@]1(CCCc2cc(Cl)ccc21)CO3 (single isomer, unassigned) [Example 45]
–	8.79	5.45	COC[C@H]1CCC[C@H](C)[C@@H](C)S(=O)(=O)NC(=O)c2ccc3c(c2)N(C[C@@H]2CC[C@@H]12)C[C@@]1(CCCc2cc(Cl)ccc21)CO3 (single isomer, unassigned) [Example 80]
< 4.48	7.85	–	C[C@@H]1[C@@H](C)CCC[C@H](C)[C@@H]2CC[C@H]2CN2C[C@@]3(CCCc4cc(Cl)ccc43)COc3ccc(cc32)C(=O)NS1(=O)=O (single isomer, unassigned) [Example 89]
5.99	9.07	–	C[C@@H]1[C@@H](C)CCC[C@H](CN2CCOCC2)[C@@H]2CC[C@H]2CN2C[C@@]3(CCCc4cc(Cl)ccc43)COc3ccc(cc32)C(=O)NS1(=O)=O (stereo in doubt) [Example 55]
5.78	8.98	–	C[C@@H]1[C@@H](C)CCC[C@H](CN2CCOCC2)[C@@H]2CC[C@H]2CN2C[C@@]3(CCCc4cc(Cl)ccc43)COc3ccc(cc32)C(=O)NS1(=O)=O (single isomer, unassigned) [Example 67]
6.25	9.55	–	C[C@@H]1[C@@H](C)CCC[C@H](CS(C)(=O)=O)[C@@H]2CC[C@H]2CN2C[C@@]3(CCCc4cc(Cl)ccc43)COc3ccc(cc32)C(=O)NS1(=O)=O (single isomer, unassigned) [Example 41]
